In PubChem BioAssay AID651650 (Sanford-Burnham Center for Chemical Genomics, 2012):
Active and inactive are the calls of the source.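 How the source made its calls: active means mean IC50 below 20 µM in each of the two panels, so potent in both; inactive means the rest.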

Target: Neuropilin-1 (Homo sapiens) (UniProt O14786)
Test: blockers of CendR peptide binding to NRP-1 – biochemical, FP and AlphaScreen panel, dose response (AID 651650)
Conditions: NRP-1 b1b2 / RPARPAR peptide binding, FP or AlphaScreen
[1] = AlphaScreen, run 1, individual panel run IC50
[2] = FP, run 1, individual panel run IC50
[3] = FP, run 2, individual panel run IC50

Neuropilin-1 (Homo sapiens), sequence (O14786 whole entry, looked up): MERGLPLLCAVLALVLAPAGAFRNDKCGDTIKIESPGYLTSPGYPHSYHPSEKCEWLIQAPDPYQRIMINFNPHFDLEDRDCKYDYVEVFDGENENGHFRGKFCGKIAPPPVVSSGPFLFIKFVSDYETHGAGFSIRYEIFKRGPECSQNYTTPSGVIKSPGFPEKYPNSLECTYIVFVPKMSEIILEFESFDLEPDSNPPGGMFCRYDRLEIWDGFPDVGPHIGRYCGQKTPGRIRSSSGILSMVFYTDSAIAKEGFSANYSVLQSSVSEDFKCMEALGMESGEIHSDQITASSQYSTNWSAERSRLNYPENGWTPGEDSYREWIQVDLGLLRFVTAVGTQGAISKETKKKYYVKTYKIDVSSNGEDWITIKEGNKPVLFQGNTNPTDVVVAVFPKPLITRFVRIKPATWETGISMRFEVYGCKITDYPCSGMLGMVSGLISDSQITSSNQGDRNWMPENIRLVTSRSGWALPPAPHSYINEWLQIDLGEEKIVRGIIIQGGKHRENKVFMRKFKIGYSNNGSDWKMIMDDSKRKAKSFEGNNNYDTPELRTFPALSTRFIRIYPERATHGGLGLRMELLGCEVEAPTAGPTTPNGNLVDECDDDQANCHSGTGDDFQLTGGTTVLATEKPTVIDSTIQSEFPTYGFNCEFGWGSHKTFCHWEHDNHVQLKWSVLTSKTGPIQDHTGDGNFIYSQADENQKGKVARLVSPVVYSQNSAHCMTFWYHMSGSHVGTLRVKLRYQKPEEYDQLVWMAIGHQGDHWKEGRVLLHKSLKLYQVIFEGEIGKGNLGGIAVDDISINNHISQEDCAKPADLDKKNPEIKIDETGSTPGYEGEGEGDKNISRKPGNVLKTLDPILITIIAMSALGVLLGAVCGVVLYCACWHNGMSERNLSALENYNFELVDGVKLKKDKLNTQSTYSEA

c1cc(CNc2ccc3c(c2)OCO3)ccn1
IC50 (AlphaScreen, mean of runs): > 100 µM (inactive)
IC50 [1]: > 100 µM
IC50 (FP, mean of runs): > 95 µM (inactive)
IC50 [2]: > 95 µM
IC50 [3]: > 95 µM

O=C(NCCCN1CCCC(O)C1)c1cc(COc2ccc(F)cc2F)on1 (stereo not given)
IC50 (AlphaScreen, mean of runs): > 100 µM (inactive)
IC50 [1]: > 100 µM
IC50 (FP, mean of runs): > 95 µM (inactive)
IC50 [2]: > 95 µM
IC50 [3]: > 95 µM

CCn1c(SCC(=O)c2ccccc2)nnc1-c1cccs1
IC50 (AlphaScreen, mean of runs): inactive
IC50 [1]: 95.3 µM
IC50 (FP, mean of runs): > 95 µM (inactive)
IC50 [2]: > 95 µM
IC50 [3]: > 95 µM

CCOC(=O)Cc1ccc(NS(=O)(=O)c2ccc(SC)cc2)cc1
IC50 (AlphaScreen, mean of runs): > 100 µM (inactive)
IC50 [1]: > 100 µM
IC50 (FP, mean of runs): > 95 µM (inactive)
IC50 [2]: > 95 µM
IC50 [3]: > 95 µM

Cc1csc(NC(C)c2nc3cc(C(F)(F)F)ccc3n2CCCO)n1 (stereo not given)
IC50 (AlphaScreen, mean of runs): 8.6 µM
IC50 [1]: 8.6 µM
IC50 (FP, mean of runs): > 95 µM (inactive)
IC50 [2]: > 95 µM
IC50 [3]: > 95 µM

CCOC(=O)c1ccc2[nH]c(C)c(C)c2c1
IC50 (AlphaScreen, mean of runs): > 100 µM (inactive)
IC50 [1]: > 100 µM
IC50 (FP, mean of runs): > 95 µM (inactive)
IC50 [2]: > 95 µM
IC50 [3]: > 95 µM

COC(=O)C1=C(c2cccc(C#N)c2)C[C@@H]2CC[C@H]1N2C(=O)NCCO
IC50 (AlphaScreen, mean of runs): > 100 µM (inactive)
IC50 [1]: > 100 µM
IC50 (FP, mean of runs): > 95 µM (inactive)
IC50 [2]: > 95 µM
IC50 [3]: > 95 µM

CN(C)CCOC(c1ccc(Cl)cc1)c1ccccn1 (stereo not given)
IC50 (AlphaScreen, mean of runs): > 100 µM (inactive)
IC50 [1]: > 100 µM
IC50 (FP, mean of runs): > 95 µM (inactive)
IC50 [2]: > 95 µM
IC50 [3]: > 95 µM

COc1cccc(OCC(=O)NNC(=S)Nc2ccc(Cl)cc2Cl)c1
IC50 (AlphaScreen, mean of runs): > 100 µM (inactive)
IC50 [1]: > 100 µM
IC50 (FP, mean of runs): > 95 µM (inactive)
IC50 [2]: > 95 µM
IC50 [3]: > 95 µM

CC(C)(C)N(NC(=O)Nc1ccc(Cl)cc1)C(=O)c1ccccc1
IC50 (AlphaScreen, mean of runs): > 100 µM (inactive)
IC50 [1]: > 100 µM
IC50 (FP, mean of runs): > 95 µM (inactive)
IC50 [2]: > 95 µM
IC50 [3]: > 95 µM

CNc1nc(-c2ccc3c(c2)CCN3C(=O)c2ccccc2F)cs1
IC50 (AlphaScreen, mean of runs): > 100 µM (inactive)
IC50 [1]: > 100 µM
IC50 (FP, mean of runs): > 95 µM (inactive)
IC50 [2]: > 95 µM
IC50 [3]: > 95 µM

CCOC(=O)C1(Cc2cccc(F)c2)CCN(Cc2ccon2)CC1
IC50 (AlphaScreen, mean of runs): 9.02 µM
IC50 [1]: 9.02 µM
IC50 (FP, mean of runs): > 95 µM (inactive)
IC50 [2]: > 95 µM
IC50 [3]: > 95 µM

CC(=O)c1cccc(S(=O)(=O)N2CCC(C(=O)O)(c3ccccc3)CC2)c1
IC50 (AlphaScreen, mean of runs): > 100 µM (inactive)
IC50 [1]: > 100 µM
IC50 (FP, mean of runs): > 95 µM (inactive)
IC50 [2]: > 95 µM
IC50 [3]: > 95 µM

COC(=O)c1ccccc1NC(=O)CSc1nc(C)cc(C)n1
IC50 (AlphaScreen, mean of runs): > 100 µM (inactive)
IC50 [1]: > 100 µM
IC50 (FP, mean of runs): > 95 µM (inactive)
IC50 [2]: > 95 µM
IC50 [3]: > 95 µM

CC(=O)OC[C@@H]1CN(Cc2cccc(C(F)(F)F)c2)C[C@H](n2cnc3c(NCc4ccco4)ncnc32)O1
IC50 (AlphaScreen, mean of runs): inactive
IC50 [1]: 87.9 µM
IC50 (FP, mean of runs): > 95 µM (inactive)
IC50 [2]: > 95 µM
IC50 [3]: > 95 µM

COc1ccc(-c2csc(NC(CO)c3nc4ccccc4n3CCCO)n2)cc1 (stereo not given)
IC50 (AlphaScreen, mean of runs): > 100 µM (inactive)
IC50 [1]: > 100 µM
IC50 (FP, mean of runs): > 95 µM (inactive)
IC50 [2]: > 95 µM
IC50 [3]: > 95 µM

Cc1ccc(C(=O)N2CCN(C34CC5CC(CC(C5)C3)C4)CC2)o1
IC50 (AlphaScreen, mean of runs): inactive
IC50 [1]: 75.4 µM
IC50 (FP, mean of runs): > 95 µM (inactive)
IC50 [2]: > 95 µM
IC50 [3]: > 95 µM

CCCCCc1c(-c2cccc(Cl)c2)ncn1CCc1ccccc1OC
IC50 (AlphaScreen, mean of runs): > 100 µM (inactive)
IC50 [1]: > 100 µM
IC50 (FP, mean of runs): > 95 µM (inactive)
IC50 [2]: > 95 µM
IC50 [3]: > 95 µM

COC/C=C/C1=CC2=CC(=O)C(C)(OC(=O)c3cnc4ccccc4n3)C(=O)C2=CN1Cc1ccc(OC)cc1 (stereo not given)
IC50 (AlphaScreen, mean of runs): inactive
IC50 [1]: 46.4 µM
IC50 (FP, mean of runs): > 95 µM (inactive)
IC50 [2]: > 95 µM
IC50 [3]: > 95 µM

Nc1ncnc2[nH]c(=S)[nH]c12
IC50 (AlphaScreen, mean of runs): > 100 µM (inactive)
IC50 [1]: > 100 µM
IC50 (FP, mean of runs): > 95 µM (inactive)
IC50 [2]: > 95 µM
IC50 [3]: > 95 µM

Cc1cn([C@H]2C[C@H](O)[C@@H](CCC(=O)NCCc3ccc4ccccc4c3)O2)c(=O)[nH]c1=O
IC50 (AlphaScreen, mean of runs): > 100 µM (inactive)
IC50 [1]: > 100 µM
IC50 (FP, mean of runs): > 95 µM (inactive)
IC50 [2]: > 95 µM
IC50 [3]: > 95 µM

O=C(O)CCSc1nnc(COc2cccc3cccnc23)n1-c1ccccc1
IC50 (AlphaScreen, mean of runs): > 100 µM (inactive)
IC50 [1]: > 100 µM
IC50 (FP, mean of runs): > 95 µM (inactive)
IC50 [2]: > 95 µM
IC50 [3]: > 95 µM

Cc1cc(C)n2c(SCC(=O)Nc3cccc(S(N)(=O)=O)c3)nnc2n1
IC50 (AlphaScreen, mean of runs): > 100 µM (inactive)
IC50 [1]: > 100 µM
IC50 (FP, mean of runs): > 95 µM (inactive)
IC50 [2]: > 95 µM
IC50 [3]: > 95 µM

O=C1CSC(c2cn(-c3ccccc3)nc2-c2cccs2)N1CC1CCCO1 (stereo not given)
IC50 (AlphaScreen, mean of runs): inactive
IC50 [1]: 44.4 µM
IC50 (FP, mean of runs): > 95 µM (inactive)
IC50 [2]: > 95 µM
IC50 [3]: > 95 µM

Cc1ccc(C(=O)N/C(=C\c2ccc(-c3ccccc3[N+](=O)[O-])o2)C(=O)NCCCN2CCOCC2)cc1
IC50 (AlphaScreen, mean of runs): > 100 µM (inactive)
IC50 [1]: > 100 µM
IC50 (FP, mean of runs): > 95 µM (inactive)
IC50 [2]: > 95 µM
IC50 [3]: > 95 µM

COC(=O)Cc1ccc(NC(=S)NCCCO)cc1
IC50 (AlphaScreen, mean of runs): > 100 µM (inactive)
IC50 [1]: > 100 µM
IC50 (FP, mean of runs): > 95 µM (inactive)
IC50 [2]: > 95 µM
IC50 [3]: > 95 µM

CC(=O)C(C(c1ccccc1)N1CCCc2ccccc21)N1CCOCC1 (stereo not given)
IC50 (AlphaScreen, mean of runs): inactive
IC50 [1]: 72.2 µM
IC50 (FP, mean of runs): > 95 µM (inactive)
IC50 [2]: > 95 µM
IC50 [3]: > 95 µM

Cn1c(=O)c2c(ncn2CC(COCc2ccccc2)OCc2ccccc2)n(C)c1=O (stereo not given)
IC50 (AlphaScreen, mean of runs): > 100 µM (inactive)
IC50 [1]: > 100 µM
IC50 (FP, mean of runs): > 95 µM (inactive)
IC50 [2]: > 95 µM
IC50 [3]: > 95 µM

CC(=O)Nc1ccc(NC(=O)C2CC(=O)N(c3ccc(Cl)cc3)C2)cc1 (stereo not given)
IC50 (AlphaScreen, mean of runs): 17.9 µM
IC50 [1]: 17.9 µM
IC50 (FP, mean of runs): > 95 µM (inactive)
IC50 [2]: > 95 µM
IC50 [3]: > 95 µM

CC(C)(C)n1cnc2cc(NC(=O)c3ccccc3)ccc21
IC50 (AlphaScreen, mean of runs): 17 µM
IC50 [1]: 17 µM
IC50 (FP, mean of runs): > 95 µM (inactive)
IC50 [2]: > 95 µM
IC50 [3]: > 95 µM

CN(C(=O)COC(=O)c1nc(-c2ccccc2)n(-c2ccccc2)n1)C1CCS(=O)(=O)C1 (stereo not given)
IC50 (AlphaScreen, mean of runs): > 100 µM (inactive)
IC50 [1]: > 100 µM
IC50 (FP, mean of runs): > 95 µM (inactive)
IC50 [2]: > 95 µM
IC50 [3]: > 95 µM

Cc1ccc(C(=O)Nc2nnc([C@H]3C[C@H](O)[C@@H](CO)O3)s2)cc1
IC50 (AlphaScreen, mean of runs): > 100 µM (inactive)
IC50 [1]: > 100 µM
IC50 (FP, mean of runs): > 95 µM (inactive)
IC50 [2]: > 95 µM
IC50 [3]: > 95 µM

COC(=O)C1=C(C)NC(C)=C(C(=O)OC)C1C(=O)OC(C)C(=O)c1ccccc1 (stereo not given)
IC50 (AlphaScreen, mean of runs): > 100 µM (inactive)
IC50 [1]: > 100 µM
IC50 (FP, mean of runs): > 95 µM (inactive)
IC50 [2]: > 95 µM
IC50 [3]: > 95 µM
